Experimental data: US6107064A, “Process for producing xanthine derivatives with bacteria and fungi” (Kyowa Hakko Kogyo Co., Ltd., priority 1994, dated 2000)
Each block holds one molecule with its values, some of them ahead of it.

Legend:
[1] = test system: Wistar rats, glycerol-induced renal insufficiency; test: Renal-Protecting Activity (Glycerol-Induced Renal Insufficiency Model); type: in vivo, rat (Wistar, male); settings: for effect on increases in serum creatinine and serum urea-nitrogen: 10 mg/kg, ip
Procedure: Renal insufficiency is the condition that homeostasis of a body fluid is unable to be maintained by disorder of renal function. It is known that subcutaneous or intramuscular administration of glycerol to rats induces acute renal insufficiency characterized by renal tubular disturbance [Can. J. Physiol.
Male Wistar rats were fisted from both food and water for 18 hours. A test compound was intraperitoneally administered to the rats (dose; 0.1 ml/100 g). After 30 minutes, the rats were anesthetized with ether and the back skin was picked up and 0.8 ml/100 […] of 50% glycerol was subcutaneously administered. Twenty four hours after the glycerol injection, the rats were anesthetized with ether and 5 ml of blood was collected from the descending aorta. A sample of the collected blood was allowed to stand for 30 minutes or longer and then centrifuged at 3,000 rpm for 10 minutes to obtain the serum. Creatinine in the serum sample and urea nitrogen in the serum were determined with an autoanalyzer (AU510, Olympus Optical Co., Ltd.) using Olympus AU500/550 exclusive reagent "Katayama" in both of creatinine test (Jaffe' method) and urea-nitrogen test (enzyme method).

adenosine A1 receptor = target: T1, adenosine A1 receptor (Rattus norvegicus, UniProt P25099); test: Adenosine A1 Receptor Binding Test (3H-CHA binding, corpus striatum); settings: 3H-CHA 1.1 nM, 25° C., 90 minutes
T1 construct: from tissue; host or cells: rat corpus striatum, washed membrane suspension
T1 sequence (P25099 1-326): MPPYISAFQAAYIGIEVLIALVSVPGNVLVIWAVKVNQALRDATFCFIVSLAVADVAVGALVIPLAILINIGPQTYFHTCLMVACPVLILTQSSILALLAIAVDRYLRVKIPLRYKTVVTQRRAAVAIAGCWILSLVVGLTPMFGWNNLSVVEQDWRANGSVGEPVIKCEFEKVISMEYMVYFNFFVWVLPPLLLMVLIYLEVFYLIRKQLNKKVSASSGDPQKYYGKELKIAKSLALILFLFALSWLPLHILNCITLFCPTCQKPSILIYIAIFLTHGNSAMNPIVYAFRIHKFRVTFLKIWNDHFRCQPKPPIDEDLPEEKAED
Procedure: The test was conducted according to the method of Bruns et al. [Mol. Pharmacol., 29, 331 (1986)] with slight modification.
Corpus striatum of a rat was suspended in ice-cooled 50 mM Tris hydroxymethyl aminomethane hydrochloride (Tris HCl) buffer (pH 7.7) by using Polytron homogenizer (manufactured by Kinematicas Co.) The suspension was centrifuged (50,000×g, 10 minutes), and the precipitate was suspended again in the same amount of 50 mM Tris HCl buffer. The suspension was centrifuged under the same conditions, and the final precipitate was suspended once again in 50 mM Tris HCl buffer to give a tissue concentration of 100 mg (wet weight)/ml. The tissue suspension was allowed to stand at 37° C. for 30 minutes in the presence of 0.02 unit/mg tissue of adenosine deaminase (manufactured by Sigma Co.) The tissue suspension was centrifuged (50,000×g, 10 minutes) and to the obtained precipitates was added 50 mM Tris HCl buffer to give a tissue concentration of 10 mg (wet weight)/ml.
To 1 ml of the tissue suspension thus prepared were added 50 μl of cyclohexyladenosine labeled with tritium (^3 H-CHA: 27 Ci/mmol, manufactured by New England Nuclear) (final concentration: 1.1 nM) and 50 μl of a test compound. The resulting mixture was allowed to stand at 25° C. for 90 minutes and then rapidly filtered by suction through a glass fiber filter (GF/C, manufactured by Whatman Co.) The filter was immediately washed three times with 5 ml each of ice-cooled 50 mM Tris HCl buffer, and transferred to a vial, and a scintillator (EX-H, manufactured by Wako Pure Chemical Industries, Ltd.) was added thereto. The radioactivity on the filter was determined with a liquid scintillation counter (manufactured by Packard Instrument Co.)
The inhibition rate (Ki value) of the test compound against the binding of A1 receptors (^3 H-CHA binding) was calculated by the equation of Cheng-Prusoff. [formula] [Notes]1. "B" means the amount of radioactivity of ^3 H-CHA bound in the presence of a test compound at various concentrations.
2. "T" means the amount of radioactivity of ^3 H-CHA bound in the absence of a test compound.
3. "IN" means the amount of radioactivity of ^3 H-CHA bound in the presence of 10 μM N^6 -(L-2-phenylisopropyl)-adenosine (Sigma Co.)

Wistar rats = test: Diuretic Effect; type: in vivo, rat (Wistar, male); settings: for Increase in amount of K+ excreted / Increase in amount of Na+ excreted / Increase in amount of urine: control 0
Procedure: The experiment was carried out by using Wistar rats (male; 150 to 300 g). The rats were starved for 18 hours prior to the administration of a test compound (n=4 to 5). After a test compound dissolved in 0.4% methanol, 1% dimethylsulfoxde, and 0.01N sodium hydroxide/physiological saline was administered intravenously to the rat, the physiological saline (25 ml/kg) was orally administered thereto. Alternatively, a test compound dissolved in the physiological saline (25 ml/kg) was orally administered to the rats. Urine was collected from the rats during 4 hours after the oral administration, and urine volume was measured by a graduated measuring cylinder, and the electrolytes (Na^+ and K^+) in the urine were determined by flame photometer (775A, manufactured by Hitachi, Ltd.) The test results are shown in Tables 3 and 4.

[2] = 0.1 mg/kg po, 4 hours, control 1.00
[3] = 1.6 mg/kg po, 4 hours, control 1.00
[4] = 1 mg/kg ip, 24 hours after glycerol, control 4.57 ± 0.31, ***p < 0.001 (Student's t test)
[5] = 1 mg/kg ip, 24 hours after glycerol, control 164.9 ± 10.3, ***p < 0.001 (Student's t test)
[6] = 0.01 mg/kg po, 4 hours, control 1.00

SMILES: NS(=O)(=O)c1cc(C(=O)O)c(NCc2ccco2)cc1Cl [furosemide, reference compound]
effect on increases in serum creatinine and serum urea-nitrogen [1]: a tendancy of deterioration

Ki (adenosine A1 receptor): 0.31 nM
SMILES: CCCn1c(=O)c2[nH]c([C@]34C[C@@H]5[C@@H](O)[C@H](C3)[C@H]3[C@@H]5[C@H]34)nc2n(CCC)c1=O [Compound 5, 8-(Trans-9-hydroxy-3-tetracyclo[3.3.1.0^3,7 .0^6,8]-nonyl)-1,3-dipropylxanthine]
Increase in amount of K+ excreted (Wistar rats; 0.0025 mg/kg po, 4 hours): 8% | Increase in amount of Na+ excreted (Wistar rats; 0.0025 mg/kg po, 4 hours): 68% | Increase in amount of urine (Wistar rats; 0.0025 mg/kg po, 4 hours): 77% | Na+/K+ (Wistar rats; 0.0025 mg/kg po, 4 hours, control 1.00): 1.56 | Increase in amount of K+ excreted (Wistar rats; 0.1 mg/kg po, 4 hours): 23% | Increase in amount of Na+ excreted (Wistar rats; 0.1 mg/kg po, 4 hours): 277% | Increase in amount of urine (Wistar rats; 0.1 mg/kg po, 4 hours): 256% | Na+/K+ (Wistar rats; [2]): 3.07 | Amount of creatinine in serum ([1]; 0.01 mg/kg ip, 24 hours after glycerol, control 3.90 ± 0.24, ***p < 0.001): 2.18 ± 0.11 mg/dL | Amount of urea-nitrogen in serum ([1]; 0.01 mg/kg ip, 24 hours after glycerol, control 124.9 ± 7.5, ***p < 0.001): 61.3 ± 6.1 mg/dL

Ki (adenosine A1 receptor): 0.5 nM
SMILES: CCCn1c(=O)c2[nH]c(C34CC5CC3CC(O)(C5)C4)nc2n(CCC)c1=O (stereo not drawn) [Compound 3, 8-(1-hydroxy-3-tricyclo[3.3.1.0^3,7]nonyl)-1,3-dipropylxanthine]
Increase in amount of K+ excreted (Wistar rats; 0.025 mg/kg po, 4 hours): 32% | Increase in amount of Na+ excreted (Wistar rats; 0.025 mg/kg po, 4 hours): 238% | Increase in amount of urine (Wistar rats; 0.025 mg/kg po, 4 hours): 324% | Na+/K+ (Wistar rats; 0.025 mg/kg po, 4 hours, control 1.00): 2.55 | Increase in amount of K+ excreted (Wistar rats; 0.1 mg/kg po, 4 hours): 18% | Increase in amount of Na+ excreted (Wistar rats; 0.1 mg/kg po, 4 hours): 272% | Increase in amount of urine (Wistar rats; 0.1 mg/kg po, 4 hours): 356% | Na+/K+ (Wistar rats; [2]): 3.15 | Amount of creatinine in serum ([1]; 0.03 mg/kg ip, 24 hours after glycerol, control 3.57 ± 0.21, ***p < 0.001): 1.64 ± 0.17 mg/dL | Amount of urea-nitrogen in serum ([1]; 0.03 mg/kg ip, 24 hours after glycerol, control 149.7 ± 7.0, ***p < 0.001): 49.0 ± 6.9 mg/dL

Ki (adenosine A1 receptor): 0.24 nM
SMILES: CCCn1c(=O)c2[nH]c([C@]34C[C@@H]5C[C@H](C3)[C@@H](O)[C@H]4C5)nc2n(CCC)c1=O (relative stereo) [Compound 2, 8-(trans-6-hydroxy-3-tricyclo[3.3.1.0^3,7]nonyl)-1,3-dipropylxanthine]
Increase in amount of K+ excreted (Wistar rats; 0.1 mg/kg po, 4 hours): 12% | Increase in amount of Na+ excreted (Wistar rats; 0.1 mg/kg po, 4 hours): 107% | Increase in amount of urine (Wistar rats; 0.1 mg/kg po, 4 hours): 134% | Na+/K+ (Wistar rats; [2]): 1.85 | Increase in amount of K+ excreted (Wistar rats; 1.6 mg/kg po, 4 hours): 15% | Increase in amount of Na+ excreted (Wistar rats; 1.6 mg/kg po, 4 hours): 220% | Increase in amount of urine (Wistar rats; 1.6 mg/kg po, 4 hours): 297% | Na+/K+ (Wistar rats; [3]): 2.77 | Amount of creatinine in serum [1, 4]: 1.88 ± 0.20 mg/dL | Amount of urea-nitrogen in serum [1, 5]: 58.0 ± 8.8 mg/dL

Ki (adenosine A1 receptor): 0.23 nM
SMILES: CCCn1c(=O)c2[nH]c([C@@]34C[C@H]5C[C@@H]3C[C@@H](C4)[C@@H]5O)nc2n(CCC)c1=O [Compound 1, 8-(Trans-9-hydroxy-3-tricyclo[3.3.1.0^3,7]nonyl)-1,3-dipropylxanthine]
Amount of K+ excreted (Wistar rats; 3 μg/kg iv, n = 5, 4 hours, control 1.47 ± 0.31): 1.24 ± 0.10 mEq/kg | Na+/K+ (Wistar rats; 3 μg/kg iv, n = 5, 4 hours, control 1.52): 2.99 | Amount of Na+ excreted (Wistar rats; 3 μg/kg iv, n = 5, 4 hours, control 2.23 ± 0.61, **p < 0.01 (Dunnett's test)): 3.71 ± 0.12 mEq/kg | Amount of urine (Wistar rats; 3 μg/kg iv, n = 5, 4 hours, control 14.5 ± 1.8, *p < 0.05 (Dunnett's test)): 26.4 mL/kg | Increase in amount of K+ excreted (Wistar rats; 0.01 mg/kg po, 4 hours): 11% | Increase in amount of Na+ excreted (Wistar rats; 0.01 mg/kg po, 4 hours): 139% | Increase in amount of urine (Wistar rats; 0.01 mg/kg po, 4 hours): 99% | Na+/K+ (Wistar rats; [6]): 2.16 | Increase in amount of K+ excreted (Wistar rats; 0.1 mg/kg po, 4 hours): -9% | Increase in amount of Na+ excreted (Wistar rats; 0.1 mg/kg po, 4 hours): 148% | Increase in amount of urine (Wistar rats; 0.1 mg/kg po, 4 hours): 105% | Na+/K+ (Wistar rats; [2]): 2.72 | Amount of creatinine in serum ([1]; 0.01 mg/kg ip, 24 hours after glycerol; control 4.35 ± 0.23; **^1) p < 0.01 (Dunnett's test)): 2.00 ± 0.21 mg/dL | Amount of urea-nitrogen in serum ([1]; 0.01 mg/kg ip, 24 hours after glycerol; control 139.7 ± 10.2; marked ***^1)): 69.9 ± 8.4 mg/dL | Amount of creatinine in serum ([1]; 0.1 mg/kg ip, 24 hours after glycerol; control 4.35 ± 0.23; **^1) p < 0.01 (Dunnett's test)): 2.32 ± 0.16 mg/dL | Amount of urea-nitrogen in serum ([1]; 0.1 mg/kg ip, 24 hours after glycerol; control 139.7 ± 10.2; **^1) p < 0.01 (Dunnett's test)): 64.4 ± 4.5 mg/dL

SMILES: Cn1c(=O)c2[nH]cnc2n(C)c1=O [aminophylline, reference compound]
effect on increases in serum creatinine and serum urea-nitrogen [1]: only a weak inhibitory tendancy

Ki (adenosine A1 receptor): 0.31 nM
SMILES: CCCn1c(=O)c2[nH]c([C@@]34C[C@H]5C[C@@H]3C[C@@H](C4)[C@H]5O)nc2n(CCC)c1=O [Compound 4, 8-(cis-9-hydroxy-3-tricyclo[3.3.1.0^3,7]nonyl)-1,3-dipropylxanthine]
Increase in amount of K+ excreted (Wistar rats; 0.01 mg/kg po, 4 hours): 43% | Increase in amount of Na+ excreted (Wistar rats; 0.01 mg/kg po, 4 hours): 167% | Increase in amount of urine (Wistar rats; 0.01 mg/kg po, 4 hours): 200% | Na+/K+ (Wistar rats; [6]): 1.86 | Increase in amount of K+ excreted (Wistar rats; 1.6 mg/kg po, 4 hours): 35% | Increase in amount of Na+ excreted (Wistar rats; 1.6 mg/kg po, 4 hours): 180% | Increase in amount of urine (Wistar rats; 1.6 mg/kg po, 4 hours): 232% | Na+/K+ (Wistar rats; [3]): 2.07 | Amount of creatinine in serum [1, 4]: 2.00 ± 0.17 mg/dL | Amount of urea-nitrogen in serum [1, 5]: 76.0 ± 8.8 mg/dL
